Test results reported in article PMC12035797, “Peptidomimetics Activating the Proteasome: A New Perspective for Parkinson’s Treatment” (Journal of Medicinal Chemistry, 2025).

Legend:
hippocampal cells = assay: Survival of hippocampal cells after 7 days with activators (PFF model); format: cell-based, mouse; conditions: 0.5 and 2.5 μM, PFF-treated
Text: Encouraged by the results received, we tested the ability of the modulator-CPP constructs to increase α-synuclein degradation in a cell model using primary mouse neuronal cells. The presence of Lewy-like neurites and Lewy-like bodies containing aggregated α-synuclein with phosphorylated serine 129 (pS129-αsyn) is a characteristic feature of the brains of people with Parkinson’s disease. To mimic these aggregations, we introduced a solution of preformed fibrils (PFFs) to the media of neuronal cells, which led to the induction of α-synuclein phosphorylation and its aggregation in neurons isolated from mouse embryos. PFFs are purified, prion-like fibrils of α-synuclein that are produced by expressing a recombinant monomeric protein in bacteria. Seven days after PFFs are introduced to the cells, large aggregates are visible in the cell soma, often next to the cell nucleus. We added the PFF solution to the hippocampal cells, and after an hour of incubation, we introduced solutions of the activator. After 7 days, we immunostained neuronal cells using a monoclonal antibody against the NeuN protein, which is commonly used in neuronal differentiation studies to assess their functional status. Additionally, we stained the nuclei of all incubated cells with DAPI. […]

[1] = system: T1, human 20S proteasome, T-L peptidase; assay: Trypsin-like (T-L) activity of h20S probed with Boc-LRR-AMC; format: biochemical; conditions: 100 μM Boc-LRR-AMC
T1 construct: human proteasome isolated from erythrocytes; from tissue; host or cells: human erythrocytes
Protocol: To assess the influence of substitutions increasing proteolytic stability on the modulators’ capacity to stimulate chymotrypsin-like, trypsin-like, and caspase-like activity of h20S, we used classic fluorogenic substrates: Suc-LLVY-AMC, Boc-LRR-AMC, and Z-LLE-AMC, respectively.
The effect of all synthesized peptidomimetics on the catalytic activity of the proteasome was tested using a human proteasome isolated from erythrocytes. Suc-LLVY-AMC, Boc-LRR-AMC, and Z-LLE-AMC fluorogenic substrates (Bachem, Bubendorf, Switzerland) were used for assessment of the chymotrypsin-, trypsin-, and caspase-like activities, respectively. A homemade FRET-type substrate Dabcyl-EDANS (Lys(Dabcyl)-[…]EDANS)-Gly)[26] was used as an additional probe. Stock solutions of the substrates and tested peptidomimetics were prepared in dimethyl sulfoxide (DMSO), ensuring that the final concentration of DMSO in all samples remained consistent at 2%. The small fluorogenic substrates were used at a final concentration of 100 μM, while Dabcyl-EDANS was prepared at a final concentration of 15 μM. […] Activity tests were conducted in 96-well plates using 50 mM Tris/HCl, pH 8.0, as an assay buffer. The final concentration of h20S proteasome was adjusted to 0.002 mg/mL (2.8 nM). The fluorescence of released aminomethylcoumarin (AMC) was monitored at 460 nm (λex was 380 nm), while the hydrolysis of Dabcyl-EDANS was detected by measuring emission at 493 nm (λex was set at 335 nm). Fluorescence measurements were taken continuously every 2 min over a 60 min period at 37 °C using a Tecan Infinite M200Pro spectrofluorometer (Tecan Trading AG, Männedorf, Switzerland). All activity assays were performed in at least three independent replicates. The relative activity was calculated in relation to the catalytic activity of the vehicle (DMSO)-treated latent proteasome, which was regarded as 100%. Statistical analysis was performed using the one-way ANOVA followed by Tukey’s post-hoc test. P-value <0.05 was considered statistically significant.

C[C@@H](O)[C@H](NC(=O)[C@H](Cc1ccccc1)NC(=O)[C@H](Cc1ccc(O)cc1)NC(=O)CN(CCCCN)C(=O)[C@H](CCCNC(=N)N)NC(=O)[C@H](CCCNC(=N)N)NC(=O)[C@H](CCCNC(=N)N)NC(=O)[C@H](CCC(N)=O)NC(=O)[C@H](CCCNC(=N)N)NC(=O)[C@H](CCCNC(=N)N)NC(=O)[C@H](CCCCN)NC(=O)[C@H](CCCCN)NC(=O)[C@@H](N)CCCNC(=N)N)C(=O)NCC(=O)N[C@@H](CO)C(=O)N[C@@H](CCCCN)C(=O)N[C@@H](CC(=O)O)C(=O)N[C@@H](Cc1c[nH]c2ccccc12)C(=O)N[C@@H](CCCNC(=N)N)C(=O)N[C@@H](CO)C(=O)N[C@@H](Cc1ccc(O)cc1)C(=O)N[C@@H](Cc1ccc(O)cc1)C(=O)N[C@@H](CO)C(=O)O [1f]
cytotoxicity to hippocampal cells (hippocampal cells): did not show cytotoxicity to hippocampal cells | T-L stimulating capacity, Boc-LRR-AMC [1]: activated the T-L less and less with an increasing concentration
